Source: PMC3367934 (Molecular & Cellular Proteomics : MCP, 2012)

Key:
[1] = immune sera mixing experiment; type: in vivo, mouse; conditions: 6-week immune sera physically mixed 50:50
[2] = system: antibodies in serum from dnaX-immunized mice; type: binding, mouse

| Substance | distinguishability in 50:50 mixed sera [1] | ability to adsorb the signal from immune sera [2] | dnaX-specific peptides reduced in intensity by adsorption ([2]; of the 210 dnaX-specific peptides, beads bearing dnaX protein) |
| --- | --- | --- | --- |
| PARYANANGRDLITLGIGSC | still distinguishable from the KLH-immunized mice |  |  |
| Transferrin: irrelevant human protein used to adsorb the immune sera |  | Only the dnaX protein could adsorb the signal |  |
| dnaX protein: recombinant dnaX protein produced in E. coli |  | Only the dnaX protein could adsorb the signal | 35 peptides |
